Assay results as given in patent US20050070508A1, “Napthalene carboxamides and their derivatives useful as new anti-angiogenic agents” (AGOURON PHARMACEUTICALS, INC., priority 2003, published 2005).

Tests used:
[1] = target: T1, human vascular endothelial growth factor receptor 2 (VEGF-R2) (Homo sapiens, UniProt P35968, DEL940-989/E990V); assay: VEGF-R2 coupled spectrophotometric assay (FLVK); format: biochemical; conditions: unphosphorylated VEGF-R2D50 (FLVK)
T1 construct: VEGF-R2D50 contains residues 806-939 and 990-1171; made in house; host or cells: baculovirus/insect cell system
T1 sequence (P35968 with tags, fused parts or gaps DEL940-989/E990V limits assumed): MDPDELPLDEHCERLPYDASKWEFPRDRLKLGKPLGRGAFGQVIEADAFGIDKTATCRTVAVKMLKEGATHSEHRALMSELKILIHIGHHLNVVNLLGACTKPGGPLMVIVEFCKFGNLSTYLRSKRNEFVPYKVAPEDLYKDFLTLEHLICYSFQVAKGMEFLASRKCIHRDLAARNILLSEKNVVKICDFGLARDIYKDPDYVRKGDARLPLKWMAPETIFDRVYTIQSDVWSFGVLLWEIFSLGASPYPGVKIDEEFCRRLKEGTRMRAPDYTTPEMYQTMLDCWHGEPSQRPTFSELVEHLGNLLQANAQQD
Text: This construct determines the ability of a test compound to inhibit tyrosine kinase activity. A construct (VEGF-R2D50) of the cytosolic domain of human vascular endothelial growth factor receptor 2 (VEGF-R2) lacking the 50 central residues of the 68 residues of the kinase insert domain was expressed in a baculovirus/insect cell system. Of the 1356 residues of full-length VEGF-R2, VEGF-R2D50 contains residues 806-939 and 990-1171, and also one point mutation (E990V) within the kinase insert domain relative to wild-type VEGF-R2. Autophosphorylation of the purified construct was performed by incubation of the enzyme at a concentration of […] in the presence of 3 mM ATP and 40 mM MgCl2 in 100 mM HEPES, pH 7.5, containing 5% glycerol and 5 mM DTT, at 4° C. for 2 h. […] See Parast et al., Biochemistry, 37, 16788-16801 (1998).
The production of ADP from ATP that accompanies phosphoryl transfer was coupled to oxidation of NADH using phosphoenolpyruvate (PEP) and a system having pyruvate kinase (PK) and lactic dehydrogenase (LDH). The oxidation of NADH was monitored by following the decrease of absorbance at 340 nm (e340=6.22 cm^−1 mM^−1) using a Beckman DU 650 spectrophotometer. Assay conditions for phosphorylated VEGF-R2D50 (indicated as FLVK-P in the tables below) were the following: 1 mM PEP; […]; 50 units of LDH/mL; 20 units of PK/mL; 5 mM DTT; 5.1 mM poly(E4Y1); 1 mM ATP; and 25 mM MgCl2 in 200 mM HEPES, pH 7.5. Assay conditions for unphosphorylated VEGF-R2D50 (indicated as FLVK in the tables) were the following: 1 mM PEP; […]; 50 units of LDH/mL; 20 units of PK/mL; 5 mM DTT; 20 mM poly(E4Y1); 3 mM ATP; and 60 mM MgCl2 and 2 mM MnCl2 in 200 mM HEPES, pH 7.5. Assays were initiated with 5 to 40 nM of enzyme. Ki values were determined by measuring enzyme activity in the presence of varying concentrations of test compounds. The percent inhibition at 50 nm (% inhibition @ 50 nm) was determined by linear least-squares regression analysis of absorbance as a function of time. The binding inhibitions were fitted to equation as described by Morrison. The data were analyzed using Enzyme Kinetic and Kaleidagraph software.

[2] = test system: human umbilical vein endothelial cells (HUVEC); assay: HUVEC+VEGF Proliferation Assay; format: cell-based; conditions: VEGF-stimulated proliferation, final VEGF 6 ng/mL, 72 hours, MTT dye reduction
Experimental: This assay determines the ability of a test compound to inhibit the growth factor-stimulated proliferation of human umbilical vein endothelial cells (“HUVEC”). HUVEC cells (passage 3-4, Clonetics, Corp.) were thawed into EGM2 culture medium (Clonetics Corp) in T75 flasks. Fresh EGM2 medium was added to the flasks 24 hours later. Four or five days later, cells were exposed to another culture medium (F12K medium supplemented with 10% fetal bovine serum (FBS), […] endothelial cell growth supplement (ECGS), and 0.1 mg/mL heparin). Exponentially-growing HUVEC cells were used in experiments thereafter. Ten to twelve thousand HUVEC cells were plated in 96-well dishes in […] of rich, culture medium (described above). The cells were allowed to attach for 24 hours in this medium. The medium was then removed by aspiration and […] of starvation media (F12K+1% FBS) was added to each well. After 24 hours, […] of test agent dissolved in 1% DMSO in starvation medium or this vehicle alone was added into each treatment well; the final DMSO concentration was 0.1%. One hour later, […] of VEGF (30 ng/mL) in starvation media was added to all wells except those containing untreated controls; the final VEGF concentration was 6 ng/mL. Cellular proliferation was quantified 72 hours later by MTT dye reduction, at which time cells were exposed for 4 hours MTT (Promega Corp.). Dye reduction was stopped by addition of a stop solution (Promega Corp.) and absorbance at 595 nm was determined on a 96-well spectrophotometer plate reader.

Row | SMILES | Ki [1] [nM] | IC50 [2] [nM]
1 | CNC(=O)c1cccc2c(F)c(Oc3ccnc4cc(C(=O)N5CC[C@H](OC)C5)sc34)ccc12 [Example 1, 5-Fluoro-6-[(2-{[(3S)-3-methoxypyrrolidin-1-yl]carbonyl}thieno[3,2-b]pyridin-7-yl)oxy]-N-methyl-1-naphthamide] | < 1 | < 1
2 | CNC(=O)c1cccc2c(F)c(Oc3ccnc4cc(C(=O)N(C)C)sc34)ccc12 [Example 2, 7-({1-Fluoro-5-[(methylamino)carbonyl]-2-naphthyl}oxy)-N,N-dimethylthieno[3,2-b]pyridine-2-carboxamide] | – | < 1
3 | CNC(=O)c1cccc2cc(Oc3ccnc4cc(C(=O)N5CC[C@H](OC)C5)sc34)ccc12 [Example 3, 6-[(2-{[(3S)-3-methoxypyrrolidin-1-yl]carbonyl}thieno[3,2-b]pyridin-7-yl)oxy]-N-methyl-1-naphthamide] | < 1 | < 1
4 | CNC(=O)c1cccc2cc(Oc3ccnc4cc(C(=O)N5CC[C@@H](N(C)C)C5)sc34)ccc12 [Example 5, 6-[(2-{[(3R)-3-(dimethylamino)pyrrolidin-1-yl]carbonyl}thieno[3,2-b]pyridin-7-yl)oxy]-N-methyl-1-naphthamide] | 1 to 10 | 1 to 10
5 | O=C(NCCCN1CCCC1)c1cccc2cc(Oc3ccnc4ccsc34)ccc12 [Example 37, 6-(Thieno[3,2-b]pyridin-7-yloxy)-naphthalene-1-carboxylic acid (3-pyrrolidin-1-yl-propyl)-amide] | > 10 | –
6 | CNC(=O)c1cccc2cc(Oc3ccnc4cc(O)ccc34)ccc12 [Example 44, 6-(7-Hydroxy-quinolin-4-yloxy)-naphthalene-1-carboxylic Acid Methylamide] | > 10 | –
7 | CCCCNC(=O)c1cccc2cc(Oc3ccnc4cc(OC)ccc34)ccc12 [Example 47, 6-(7-Methoxy-quinolin-4-yloxy)-naphthalene-1-carboxylic Acid Butylamide] | – | > 10
8 | CCCCNC(=O)c1cccc2cc(Oc3ccnc4cc(O)ccc34)ccc12 [Example 48, 6-(7-Hydroxy-quinolin-4-yloxy)-naphthalene-1-carboxylic Acid Butylamide] | – | 1 to 10
9 | O=C(NCCN1CCOCC1)c1cccc2cc(Oc3ncnc4ccsc34)ccc12 [Example 52, N-(2-Morpholin-4-ylethyl)-6-(thieno[3,2-d]pyrimidin-4-yloxy)-1-naphthamide] | > 10 | –

Continued, in another order:

Row | Ki [1] [nM] | SMILES | IC50 [2] [nM]
10 | < 1 | CNC(=O)c1cccc2cc(Oc3ccnc4cc(C(=O)N(C)C)sc34)ccc12 [Example 4, N,N-Dimethyl-7-({5-[(methylamino)carbonyl]-2-naphthyl}oxy) thieno[3,2-b]pyridine-2-carboxamide] | 1 to 10
11 | < 1 | CN(C)[C@@H]1CCN(C(=O)c2cc3nccc(Oc4ccc5c(C(=O)NC6CC6)cccc5c4)c3s2)C1 [Example 9, N-Cyclopropyl-6-[(2-{[(3R)-3-(dimethylamino)pyrrolidin-1-yl]carbonyl}thieno[3,2-b]pyridin-7-yl)oxy]-1-naphthamide] | –
12 | < 1 | CNCC1CCN(C(=O)c2cc3nccc(Oc4ccc5c(C(=O)NC)cccc5c4)c3s2)C1 (stereo not shown) [Example 10, N-Methyl-6-{[2-({3-[(methylamino)methyl]pyrrolidin-1-yl}carbonyl)thieno[3,2-b]pyridin-7-yl]oxy}-1-naphthamide] | –
13 | 1 to 10 | COCCNC(=O)c1cccc2cc(Oc3ccnc4cc(C(=O)N5CC[C@@H](N(C)C)C5)sc34)ccc12 [Example 11, 6-[(2-{[(3R)-3-(Dimethylamino)pyrrolidin-1-yl]carbonyl}thieno[3,2-b]pyridin-7-yl)oxy]-N-(2-methoxyethyl)-1-naphthamide] | –
14 | > 10 | O=C(NCCCN1CCCCC1)c1cccc2cc(Oc3ccnc4ccsc34)ccc12 [Example 36, 6-(Thieno[3,2-b]pyridin-7-yloxy)-naphthalene-1-carboxylic acid (3-piperidin-1-yl-propyl)-amide] | –
15 | > 10 | CN(C)CCNC(=O)c1cccc2cc(Oc3ccnc4ccsc34)ccc12 [Example 41, 6-(Thieno[3,2-b]pyridin-7-yloxy)-naphthalene-1-carboxylic acid (2-dimethylamino-ethyl)-amide] | –
